Test results reported in patent US11510928B2, “Use of mirtazapine in the treatment of inflammatory disorders, autoimmune disease and PBC” (UTI Limited Partnership, priority 2017, dated 2022).

Legend:
PBC patients = experiment: THIN database cohort study of PBC patients: decompensation, liver transplant and mortality free survival by drug usage; format: in vivo, human
From the text: We conducted a cohort study using The Health Improvement Network (THIN). THIN is one of the largest medical databases in the UK^8, consisting of prospectively gathered electronic medical records from over 11.1 million patients^8. […] Data from participant general practitioners across the UK is exported to the THIN administrators and database, which is updated every 3 months^11. The THIN database records demographic data and clinical events using Read codes, prescription medications, and laboratory values^12.
We identified patients with PBC Read code “J6160” from April 1974 until May 2007. This cohort was followed until May 2012. We excluded patients having overlap syndrome with autoimmune hepatitis or primary sclerosing cholangitis. The first code of PBC identified in the THIN database was considered the index (ie. diagnosis) date. FIG. 10 provides a flow diagram illustrating the selection of the study population. The primary outcome was the first occurrence of one of the three events following the diagnosis of PBC: (1) decompensation of cirrhosis (ascites, spontaneous bacterial peritonitis, hepatic encephalopathy, hepatorenal syndrome, variceal bleeding, jaundice, or hepatocellular carcinoma); (2) liver transplantation; or (3) death.
Read codes were used to identify patients with chronic depression disorder. Chronic depression was defined as follows: (1) never diagnosed with chronic depression; (2) past depression diagnosis prior to 90 days from PBC diagnosis; and (3) current depression diagnosis if a diagnosis was made within 90 days before or after a PBC diagnosis. Using THIN database therapy files, we assessed the impact of anti-depressant medications on outcomes of PBC patients (mortality, decompensation, and liver transplant).
For each anti-depressant medication, use was defined as follows: (1) never used the medication; (2) past use as defined as a previous code for medication use prior to 90 days of PBC diagnosis; and (3) current medication user if the medication code was identified within 90 days before or after a PBC diagnosis. We assessed the effect of each anti-depressant medication on study outcomes separately. Antidepressants were classified as typical or atypical and stratified accordingly. Atypical antidepressants include: Agomelatine, Bupropion and Mirtazapine. While typical antidepressants include the following groups: (a) Selective Serotonin Reuptake Inhibitors (SSRI): Citalopram, Escitalopram, Fluoxetine, Fluvoxamine, Paroxetine and Sertraline; (b) […] (SNRI): Desvenlafaxine, Duloxetine, Minacipran and Venlafaxine; (c) Serotonin modulators: Nefazodone, Trazodone and Vilazodone; (d) Tricyclics and tetracyclics: Amitriptyline, Amoxapine, Clomipramine, Desipramine, Doxepin, Imipramine, Maprotiline, Nortriptyline and Protriptyline, Trimiprramine; (e) Monamine oxidase inhibitors: Isocarboxazid, Phenelzine, Selegiline and Tranylcypromine.
We assessed age at diagnosis of PBC, sex, and the presence of coexisting liver disease (ie. chronic hepatitis either viral, alcoholic, or fatty liver disease; yes/no). Smoking status was classified (current, former, never smoked, or unknown status) at the time of PBC diagnosis, alcohol consumption was classified (current, former, never consumed alcohol, or unknown status) at PBC diagnosis. Ursodeoxycholic acid (UDCA) usage (ever/never recorded) was also determined.
In our primary analysis, we assessed demographic, clinical, and medication variables in the PBC cohort according to depression status. Where appropriate, we used the Fisher Exact test or Chi-Square test for categorical data, and the Kruskal-Wallis or Student's t-test for continuous data. Univariate analysis using Log Rank test and multivariate Cox Proportional Regression models were used to assess the impact of depression or anti-depressant medications on PBC outcomes as defined by death, decompensated cirrhosis, or liver transplant. […]

hepatic immune cells = experiment: Hepatic immune cell phenotyping by flow cytometry after mirtazapine treatment; format: in vivo, mouse
Description: Male 8-10 week old C57BL/6 mice (Jackson Labs, Bar Harbor, Me.) were used. All procedures were approved by the University of Calgary Animal Care Committee (protocol numbers AC14-0129 and AC14-0128) and were performed in accordance with the guidelines of the Canadian Council on Animal Care. To delineate the impact of mirtazapine treatment upon liver immune cell numbers and phenotype, and upon cytokine/chemokine networks within the liver, mice were treated with mirtazapine 1-20 mg/kg intraperitoneally^13-15. Mirtazapine was suspended in 1% aqueous solution of Tween 80, whereas the control group received 1% aqueous solution of Tween 80. […] The detailed experimental protocols, lists of antibodies and reagents used, flow cytometry gating, and immune cell phenotyping strategies, are described herein. […] Isolated hepatic leukocytes were subjected to direct immunofluorescence analyses using multicolor flow cytometry staining as previously described. Samples were acquired either using a FACScan flow cytometer (Becton Dickinson, Mountain View, Calif.) or AttuneTM Acoustic Focusing flow cytometer (Applied Biosytems, […], Burlington, ON). Data were analyzed using FlowJo® software (Treestar, Ashland, Oreg.). Gating proceeded as follows: gating of live cells and exclusion of duplet cells followed by gating on forward scatter (FSC) and side scatter (SSC) areas to identify regions appropriate to define live leukocytes. Within the leukocyte gate, the following cell subsets were identified: Regulatory T cells (CD4^+CD25^+Foxp3^+), monocytes (CD11b^+Ly6C^+), dendritic cells (CD11b^+CD11c^+), B Cells (CD3^-IgM^+), B1a B cells (IgM^+CD5^+CD^11b^+), B1b B cells (IgM^+CD5^-CD11b^+), and B2 B cells as (IgM^+CD5^-CD11b^-). Fluorescence-minus-one (FMO) controls were used for the accurate designation of cells with fluorescence above background levels. Appropriate isotype controls were used to determine the specificity of all antibodies used. Cell numbers were calculated based on the percentage of cells found in the gate of interest, and total cell numbers isolated from each liver.

circulating TNFα = conditions: patients with major depressive disorder; cited from earlier work
[1] = usage prior to PBC diagnosis vs none
[2] = 20 mg/kg ip, 3 hrs post-treatment

SMILES: CN1CCN2c3ncccc3Cc3ccccc3C2C1 (stereo not drawn) [Mirtazapine]
- Protective effect against liver decompensation, transplantation, or death (PBC patients; PBC cohort): over four-fold protective effect
- Requirement of liver transplant (PBC patients; PBC patients who had ever used the drug): None of the PBC patients who had ever used mirtazapine required liver transplant
- Multivariate model-2 HR (include age, gender, alcohol, URSO, depression, mirtazapine) (PBC patients; current usage (after PBC diagnosis) vs none): 0.23
- Univariate HR, 10-year decompensation, liver transplant and mortality free survival (PBC patients; current usage vs none): 0.22
- Adjusted HR, mortality (PBC patients; current usage, outcome assessed separately): 0.22
- Adjusted HR, liver decompensation (PBC patients; current usage, outcome assessed separately, not significant): 0.22
- Adjusted HR, decompensated cirrhosis, liver transplant and mortality (PBC patients; sensitivity analysis: only patients using UDCA (n=793), current usage): 0.21
- Multivariate model-2 HR (include age, gender, alcohol, URSO, depression, mirtazapine) (PBC patients; [1]): 0.94
- Univariate HR, 10-year decompensation, liver transplant and mortality free survival (PBC patients; [1]): 0.84
- Cellular expression levels of FOXP3 in hepatic Tregs (MFI) (hepatic immune cells; [2]): enhanced cellular expression levels of FOXP3
- Hepatic CD11b+CD11c+ dendritic cells as % of total CD11b+ cells (hepatic immune cells; [2]): relatively enriched
- Numbers of Tregs (CD4+CD25+FOXP3+) within the liver (hepatic immune cells; [2]): significantly increased numbers of Tregs
- Hepatic numbers of CD73 expressing T cells (CD3+CD73+) (hepatic immune cells; 5 hr (FIG. 11)): increases hepatic numbers of CD73 expressing T cells
- CXCR3+CD73+ B1a cells in the liver (hepatic immune cells; 5 hrs post-treatment): significantly increased recruitment
- Expression intensity of FOXP3 per cell (MFI) (hepatic immune cells; 5 hrs post-treatment): significantly increased
- Hepatic B1a cells (hepatic immune cells; 5 hrs post-treatment): significant increase
- Hepatic B1b cells (hepatic immune cells; 5 hrs post-treatment): remained unchanged
- Hepatic B2 cells (hepatic immune cells; 5 hrs post-treatment): decrease
- Increase in hepatic numbers of CD4+CD25+FOXP3+ T cells (Tregs) (hepatic immune cells; 5 hrs post-treatment): ~2 fold
- Reduction of hepatic LY6Chi monocyte population (hepatic immune cells; 5 hrs post-treatment): ~2.5 fold
- Total hepatic leukocyte numbers (CD45+) (hepatic immune cells; 5 hrs post-treatment): did not alter total overall hepatic leukocyte numbers
- Total numbers of hepatic monocytes (CD11b+LY6C+) (hepatic immune cells; 5 hrs post-treatment): significant reduction
- Hepatic numbers of repair monocytes (CD11b+Ly6Clow) (hepatic immune cells; 5 hrs post-treatment (FIG. 4H)): significantly reduces
- CXCL10 expression in hepatic monocytes and dendritic cells (MFI) (hepatic immune cells; flow cytometry, vs vehicle): increased CXCL10 expression
- Hepatic CD11b+Ly6Chi (inflammatory) monocytes (hepatic immune cells; pilot study, 20 mg/kg, 4 hrs): rapid striking reduction
- Hepatic CD11b+Ly6Clo (anti-inflammatory/repair) monocyte numbers (hepatic immune cells; pilot study, 20 mg/kg, 4 hrs): no change
- Circulating TNFα levels (circulating TNFα): increased circulating TNFα levels
